# According to paper PMC11818921, “Biological Activities of Constituents from Rosa roxburghii and Their Mechanisms Based on Network Pharmacology and Biological Verification” (International Journal of Molecular Sciences, 2025):
# “Also recorded” adds a separate entry of the source.
# Experiments:
# [1] = biological target: α-glucosidase (Saccharomyces cerevisiae, UniProt P53341); experiment: α-Glucosidase inhibition assay (pNPG); assay type: biochemical; conditions: at a concentration of 200 μM; for inhibition at 200 µM: read-out: α-glucosidase inhibition rate
# Sequence of α-glucosidase (P53341 whole entry): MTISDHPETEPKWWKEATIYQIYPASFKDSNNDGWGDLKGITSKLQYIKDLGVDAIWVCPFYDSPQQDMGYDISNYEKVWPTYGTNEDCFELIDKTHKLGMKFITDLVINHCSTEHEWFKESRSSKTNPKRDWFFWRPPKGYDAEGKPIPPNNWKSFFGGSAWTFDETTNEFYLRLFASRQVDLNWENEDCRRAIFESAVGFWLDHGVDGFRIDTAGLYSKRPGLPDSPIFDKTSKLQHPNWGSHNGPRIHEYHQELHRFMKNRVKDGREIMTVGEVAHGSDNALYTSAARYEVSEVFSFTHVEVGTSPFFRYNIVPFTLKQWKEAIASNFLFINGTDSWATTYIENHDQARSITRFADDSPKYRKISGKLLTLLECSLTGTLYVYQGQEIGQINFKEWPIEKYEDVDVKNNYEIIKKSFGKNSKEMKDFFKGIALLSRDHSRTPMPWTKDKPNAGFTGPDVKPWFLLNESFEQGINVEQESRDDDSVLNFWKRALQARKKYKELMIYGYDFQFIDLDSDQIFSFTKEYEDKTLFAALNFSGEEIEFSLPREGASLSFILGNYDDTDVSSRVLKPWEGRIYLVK
# Procedure: For this assay, 20 μL of each sample, 20 μL of α-glucosidase solution (0.6 U/mL), and PBS solution (20 μL) were mixed, added to a 96-well plate, and incubated at 37 °C for 10 min, and then, pNPG solution (20 μL) was added and incubation continued for 30 min. At the end of incubation, the reaction was terminated with the addition of 80 μL of NaCO3 (0.2 M). The release of p-nitrophenol was measured by placing the 96-well plate at 405 nm on an enzyme meter (positive control: acarbose). The test was repeated three times for all samples.Inhibition (%) = (1 − A405 sample/A405 control) × 100%.
# [2] = ABTS free radical-scavenging assay; conditions: 6 min reaction, 734 nm
# Procedure: In order to explore the antioxidant capacity of compounds 1–7, DPPH and ABTS free radical-scavenging methods were used in this experiment (ascorbic acid as a positive control). During the experimental operation, the antioxidant test method proposed by Zhu et al. was used as a reference. Different concentrations of each compound solution were added to 96-well plates, and then 100 μL of DPPH/ABTS solution was added to each well, and the reaction was performed at room temperature for 30 min (DPPH)/6 min (ABTS). After the reaction, the OD values of each well were measured at 517 nm (DPPH)/734 nm (ABTS) using a microplate reader. Finally, according to the measured OD value, the DPPH and ABTS free radical-scavenging rates of each sample were calculated. In order to ensure the accuracy and reliability of the experimental data, all samples were tested three times.Clearance = [1 − (A sample group − A control group)/A blank group] × 100%
# [3] = test system: NO release in LPS-induced RAW264.7 macrophages; experiment: Inhibition of NO production induced by LPS in RAW264.7 cells; assay type: cell-based; conditions: LPS-induced RAW264.7 cells; for IC50: RAW264.7, 24 h, LPS 2 μg/mL, 24 h
# Procedure: (§1) RAW264.7 cells were added to a 96-well plate (100 μL/well) at 1.5 × 10^5 cells/mL and incubated for 24 h (37 °C). The control group, model group, and experimental group were set up, with 4 replicates in each group. After incubation, the supernatant was discarded. The cells in the experimental group were treated with different concentrations of compounds, and each group was incubated with lipopolysaccharides (2 μg/mL) for 24 h (37 °C). According to the steps and requirements of the kit instructions, NO, TNF-α, and IL-6 content was detected.
# [4] = RAW264.7 cell viability experiment (MTT); conditions: mouse, RAW264.7 cells
# Procedure: (§2) RAW264.7 cells were cultured in DMEM containing 1% penicillin/streptomycin and 10% bovine fetal serum in an incubator (5% CO2, 37 °C).
# (§3) RAW264.7 cells in the logarithmic growth phase were taken and adjusted to 1.5 × 10^5 cells/mL. The cells were inoculated in 96-well plates and divided into a control group, a blank group, and an experimental group with different concentrations. Each group had 4 duplicate wells and was incubated for 24 h (37 °C). Different concentrations of compounds (100 μL) were added to 96-well plates, and 100 μL of culture medium was added to the blank group and the control group, respectively, and incubated for 24 h. MTT (5 mg/mL, 10 μL) was incubated for 4 h (37 °C) per well. The OD value was measured at 450 nm using a microplate reader to calculate the cell viability.
# [5] = test system: IL-6; experiment: ELISA of IL-6 expression in LPS-stimulated RAW264.7 cells; assay type: cell-based; conditions: lowest concentration 12.5 μM
# Procedure: as §1
# [6] = test system: TNF-α; experiment: ELISA of TNF-α expression in LPS-stimulated RAW264.7 cells; assay type: cell-based; conditions: 50 μM
# Procedure: as §1
# [7] = test system: RAW264.7 cells; conditions: 50 µM
# Procedure: as §2, §3
# [8] = Mus musculus, 50 µM, read-out: NO inhibition rate (%)
IC50 [2] [µM],Molecule,"inhibition at 50 µM [3, 8] [%]","viability at 24 h, 50 µM [4] [%]",further results
–,4-(1-Methoxyethenyl)phenol [Compound 7],–,–,α-glucosidase inhibition rate [1]: 41.1%
107 ± 1.1,"COC(=O)C1OC(OCC(O)COC(=O)c2cc(OC)c(O)c(OC)c2)C(O)C(O)C1O (stereo not shown) [Compound 1, Roxbubenzoate A]",0,100,–
–,"O=C1c2c(O)cc(O)cc2O[C@H](c2ccc(O)cc2)[C@H]1O [Compound 3, aromadendrin]",92.5,100,IC50 ([3]; Mus musculus): 7.83 ± 2 µM; effect on IL-6 expression (ELISA) [5]: strong inhibitory effect; also recorded: dose-dependently suppressed; effect on TNF-α expression (ELISA) [6]: significant inhibitory activity
–,"CC1=C(CC[C@H](C)O[C@H]2O[C@@H](CO)[C@H](O)[C@@H](O)[C@@H]2O)C(C)(C)C=CC1=O [Compound 4, linarionoside A]",6.6,98.8,inhibition at 200 µM [1]: 46.7%
–,"S=C(S)N1CCCC1 [PDTC, Pyrrolidine dithiocarbamate, reference compound]",–,–,"IC50 ([3]; Mus musculus): 3.13 ± 0.3 µM; inhibition at 5 µM ([3]; Mus musculus, 5 µM, positive control, read-out: NO inhibition rate (%)): 69.1%; viability at 24 h, 5 µM [4]: 98.5%"
128.3 ± 1.2,"(1R)-4-[(3R)-3-hydroxybutyl]-3,5,5-trimethylcyclohex-3-en-1-ol [Compound 6]",–,–,NO inhibition rate (%) ([3]; 50 µM): 0.8%; Cell viability (%) [7]: 98.1%

Molecule,IC50 [2] [µM],"inhibition at 50 µM [3, 8] [%]","viability at 24 h, 50 µM [4] [%]",further results
"O=C1C[C@H](c2ccc(O)c(O)c2)Oc2cc(O)cc(O)c21 [Compound 2, (-)-eriodictyol]",142.6 ± 0.8,31.3,100,inhibition at 200 µM [1]: 50.1%
